In article PMC3908613 (Bioscience Reports, 2014):

Key:
GST-Mst1 = molecular target: T1, GST-Mst1 (Homo sapiens, UniProt Q13043); assay: Kinase assay for recombinant Mst1; type: biochemical; details: 100 μM ATP, myelin basic protein substrate
T1 construct: GST; purchased DSTT
T1 sequence (Q13043 1-487): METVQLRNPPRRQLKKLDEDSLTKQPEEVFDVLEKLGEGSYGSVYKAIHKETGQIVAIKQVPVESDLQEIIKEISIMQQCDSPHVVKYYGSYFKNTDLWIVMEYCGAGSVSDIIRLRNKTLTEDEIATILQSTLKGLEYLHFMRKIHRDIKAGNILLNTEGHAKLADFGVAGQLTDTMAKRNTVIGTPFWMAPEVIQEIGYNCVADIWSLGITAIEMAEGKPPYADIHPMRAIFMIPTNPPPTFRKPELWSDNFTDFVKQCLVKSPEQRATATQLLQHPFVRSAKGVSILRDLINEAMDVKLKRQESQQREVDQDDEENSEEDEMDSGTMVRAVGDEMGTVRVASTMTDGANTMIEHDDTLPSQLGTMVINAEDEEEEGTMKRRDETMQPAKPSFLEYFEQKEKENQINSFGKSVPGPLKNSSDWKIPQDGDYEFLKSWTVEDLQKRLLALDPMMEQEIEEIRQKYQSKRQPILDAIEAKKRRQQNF

BMDC [1] = assay: Cytokine production by LPS-stimulated BMDC (ELISA); type: cell-based, C57BL/6 mice
Method: DCs were generated from the bone marrow or the spleen of C57BL/6 mice as previously described. Briefly, bone marrow cells were cultured for 7 days at 37°C, 5% (v/v) CO2 in complete RPMI medium supplemented with 10 ng/ml recombinant granulocyte-macrophage colony-stimulating factor (GM-CSF; Peprotech). Spleen cells were cultured for 14 days at 37°C, 5% CO2 in complete RPMI containing 10 ng/ml GM-CSF and 1 ng/ml TGFβ (transforming growth factor-β; R&D Systems). NIH3T3 cells (European Cell Culture Collection) were cultured in DMEM (Dulbecco's modified Eagle's medium) supplemented with glutamine, penicillin, streptomycin and 10% (v/v) calf serum (Invitrogen). […] The amounts of TNFα (tumour necrosis factor α), IL6 (interleukin 6) and IL10 in the supernatant were measured using ELISA kits specific for each cytokine (TNFα, IL6; Peprotech, IL10; R&D Systems).

BMDC [2] = assay: Immunoblot of phosphorylated signalling proteins in stimulated BMDC; type: cell-based, C57BL/6 mice
Method: (§1) BMDC (1.5×10^6 cells) were incubated in 6-well plates in RPMI supplemented with 0.3% FCS for 5 h at 37°C. […] NIH3T3 cells (2×10^4) were plated in 6-well plates for 48 h at 37°C. The cells were deprived of serum for 8 h in DMEM supplemented with 2 mg/ml BSA (Sigma) and then stimulated with 100 ng/ml EGF (epidermal growth factor; Peprotech) for 5 min at 37°C.
(§2) Cells were washed in cold PBS, lysed on ice for 10 min in lysis buffer (1% Triton X-100 containing 50 mM Tris–HCl (pH 7.5), 150 mM NaCl, 1 mM EGTA, 1 mM EDTA, 10 mM NaF, 1 mM sodium orthovanadate and 5 mM sodium pyrophosphate and protease inhibitors (Roche)) and centrifuged for 10 min at 20000 g at 4°C.
BMDC (5×10^6 cells) were stimulated as described above. Lysates were pre-cleared with protein G Sepharose beads (Roche) for 30 min at 4°C. Paxillin was immunoprecipitated with 2 μg of anti-paxillin (Millipore) or with anti-IgG antibodies (Santa Cruz Biotechnology) for 1 h at 4°C and then incubated with 15 μl protein G Sepharose beads for 1 h at 4°C. Beads were washed four times with lysis buffer and paxillin was eluted with NuPage sample buffer (Invitrogen). The immunoprecipitated proteins were separated by electrophoresis on a 10% (w/v) NuPage gel and transferred onto a nitrocellulose membrane. The membrane was probed with anti-phospho Ser250-paxilin (kind gift of Luc Sabourin, McMaster University, Canada) or anti-paxillin antibodies.

NIH3T3 cells = assay: Immunoblot of PKB phosphorylation in EGF-stimulated NIH3T3 cells; type: cell-based; details: EGF 100 ng/ml, 4 μM D1870
Method: as §1, §2

Rsk2 = molecular target: T2, Rsk2 (Mus musculus, UniProt P18654); assay: Desthiobiotin-ATP probe capture on streptavidin beads, Western blot; type: binding, C57BL/6 mice; details: 10 μM inhibitor, DC lysate
T2 construct: recovered on streptavidin beads following desthiobiotin-ATP labelling of DC lysates including Rsk2, Erk1/2 and p38; endogenous in cells; host or cells: mouse spleen-derived dendritic cells (SDC), lysate
T2 sequence (P18654 whole entry): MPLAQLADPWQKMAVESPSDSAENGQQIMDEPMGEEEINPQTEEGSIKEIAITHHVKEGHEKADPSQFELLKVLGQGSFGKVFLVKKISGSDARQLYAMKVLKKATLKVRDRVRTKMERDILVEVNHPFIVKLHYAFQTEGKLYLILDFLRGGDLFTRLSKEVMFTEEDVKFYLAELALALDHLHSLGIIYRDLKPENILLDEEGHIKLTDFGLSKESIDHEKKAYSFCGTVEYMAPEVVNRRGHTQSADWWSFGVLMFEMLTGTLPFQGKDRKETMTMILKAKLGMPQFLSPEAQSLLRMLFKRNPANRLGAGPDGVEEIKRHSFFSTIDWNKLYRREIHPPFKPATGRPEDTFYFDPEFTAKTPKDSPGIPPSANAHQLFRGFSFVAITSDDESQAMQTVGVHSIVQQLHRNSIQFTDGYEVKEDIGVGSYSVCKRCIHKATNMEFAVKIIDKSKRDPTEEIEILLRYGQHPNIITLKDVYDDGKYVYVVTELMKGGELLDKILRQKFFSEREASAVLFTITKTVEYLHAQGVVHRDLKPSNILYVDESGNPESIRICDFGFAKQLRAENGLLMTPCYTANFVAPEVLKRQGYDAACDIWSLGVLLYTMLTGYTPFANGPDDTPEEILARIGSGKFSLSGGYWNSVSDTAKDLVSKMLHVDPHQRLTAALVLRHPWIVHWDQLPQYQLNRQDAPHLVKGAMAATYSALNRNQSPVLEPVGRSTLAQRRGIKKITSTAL

DC = assay: Actin cytoskeleton organisation in DC (confocal microscopy); type: cell-based, C57BL/6 mice; details: 4 μM D1870 or 2 μM BIX, 1h30 at 37°C
Method: 2 μMBIXfor1h30at37◦ C. Cells were ﬁxed in 4 % (v/v) paraformalde-hyde for 15 min, permeabilized with 0.1 % Triton for 5 min and stained with phalloidin-Alexa 555 (Invitrogen) and anti-vinculin antibody (Sigma) followed by goat anti-mouse Alexa 488 antibody (invitrogen). Cells were analysed on a Zeiss700 confocal microscope. V inculin (green) and phal-loidin (red). Error bar 10 μm. Images are representative of three inde- […]
© 2014 The Author(s) This is an Open Access ar ticle distributed under the terms of the Creative Commons Attribution Licence (CC-BY) (http://creativecommons.org/licenses/by/3.0/)c which permits unrestricted use, distribution and reproduction in any medium, provided the original work is properly cited.
(1 picture or pasted object on this page, not shown here)

Rsks = details: cited from earlier work
[3] = LPS 50 ng/ml, 18 h, increasing concentrations of inhibitor

## CC(C)CCN1c2nc(Nc3cc(F)c(O)c(F)c3)ncc2N(C)C(=O)C1C (stereo not shown) [D1870, BI-D1870]
GST-Mst1
  IC50: ~300 nM
BMDC [1]; [3]
  IL6 secretion: dose-dependent inhibition
  IL10 secretion: dose-dependent inhibition
  TNFα production: not by D1870
BMDC [1]; after 1 or 3 h of LPS stimulation, data not shown
  mRNA levels of IL6 and IL10: rapidly inhibited
BMDC [2]; LPS 50 ng/ml, 30 min
  Concentration blocking phosphorylation of Bad (Ser112): ≤ 1 µM
  Concentration blocking phosphorylation of filamin A (Ser2152): ≤ 1 µM
  Erk1/2, p38 or JNK1/2 phosphorylation: Neither inhibitor had any effect
  GSK3α/β phosphorylation: more potent
  PKB phosphorylation at Ser473 and Thr308: complete block
  Phosphorylation of MSK1 and MK2: not affected
  phosphorylation of IκBα: neither D1870 nor BIX affected
BMDC [2]; LPS, 30 min
  phosphorylation of ERM proteins: substantial decrease
BMDC [2]; LPS, 30 min, paxillin immunoprecipitated
  phosphorylation of paxillin on Ser250: prevented its phosphorylation at low concentrations
BMDC [2]; MIP1α 100 ng/ml, 5 min, 4 μM D1870
  PKB phosphorylation: impaired
NIH3T3 cells
  PKB phosphorylation: not affected
Rsk2
  capture of Rsk2 on streptavidin beads: blocked
DC
  morphological changes in resting DC (cell spreading, focal adhesion, loss of podosomes): induced morphological changes
Rsks
  IC50: 10 to 30 nM
